Laboratory results as given in ChEMBL document CHEMBL1201862, “PubChem BioAssay data set” (2004).
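96-well plates; 48 h exposure; 5 concentrations. Endpoints by linear interpolation between flanking doses. Not reached: highest tested concentration assigned. Here, GI50 denotes the concentration required for 50% inhibition of growth.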 The source made the active and inactive calls. Rule as the data show it: active = GI50 up to about 1.1 µM and inactive = higher.

Key:
Assay in all cases: NCI-60 cell line screen, 48 h
SK-MEL-5 = test system: SK-MEL-5
OVCAR-8 = test system: OVCAR-8
RXF 393 = test system: RXF 393
KM12 = test system: KM12
HOP-62 = test system: HOP-62
MDA-N = test system: MDA-N
T47D = test system: T47D
SF-295 = test system: SF-295
OVCAR-3 = test system: OVCAR-3
A498 = test system: A498
ACHN = test system: ACHN
SK-MEL-2 = test system: SK-MEL-2
NCI/ADR-RES = test system: NCI/ADR-RES
MDA-MB-231 = test system: MDA-MB-231
NCI-H522 = test system: NCI-H522
M14 = test system: M14
SF-268 = test system: SF-268
BT-549 = test system: BT-549
K562 = test system: K562

Measured: GI50

COP(C)(=O)C1=CCN(C(=O)OCC[Si](C)(C)C)CC1 (stereo not drawn)
inactive: SK-MEL-5 > 100 µM | OVCAR-8 > 100 µM | RXF 393 > 100 µM | KM12 > 100 µM | HOP-62 > 100 µM | MDA-N > 100 µM | T47D > 100 µM | SF-295 > 100 µM | OVCAR-3 > 100 µM | A498 > 100 µM | ACHN > 100 µM | SK-MEL-2 > 100 µM | NCI/ADR-RES > 100 µM | MDA-MB-231 > 100 µM | NCI-H522 > 100 µM | M14 > 100 µM | SF-268 > 100 µM

O[C@@]12Cc3c([nH]c4ccccc34)[C@@H]3Oc4c(-c5ccccc5)ccc5c4[C@@]31CCN(CC1CC1)[C@@H]2C5
inactive: SK-MEL-5 1.83 µM | OVCAR-8 2.22 µM | BT-549 10.8 µM | KM12 1.5 µM | HOP-62 1.51 µM | MDA-N 1.73 µM | T47D 2 µM | SF-295 1.69 µM | K562 2.33 µM | OVCAR-3 1.49 µM | A498 1.47 µM | ACHN 1.44 µM | SK-MEL-2 1.84 µM | NCI/ADR-RES 2.51 µM | NCI-H522 1.77 µM | M14 1.82 µM | SF-268 3.42 µM

O=C(n1[nH]c(=O)n(-c2ccc([N+](=O)[O-])cc2)c1=O)C(Cl)(Cl)Cl
inactive: SK-MEL-5 > 75 µM | OVCAR-8 > 75 µM | RXF 393 > 75 µM | BT-549 > 75 µM | KM12 > 75 µM | HOP-62 > 75 µM | MDA-N > 75 µM | T47D > 75 µM | SF-295 > 75 µM | K562 > 75 µM | OVCAR-3 > 75 µM | ACHN > 75 µM | SK-MEL-2 > 75 µM | NCI/ADR-RES > 75 µM | MDA-MB-231 > 75 µM | NCI-H522 > 75 µM | M14 > 75 µM | SF-268 > 75 µM

O=c1c2c(c1=O)C1(SCCCS1)c1cc(Cl)ccc1O2
inactive: SK-MEL-5 > 100 µM | OVCAR-8 > 100 µM | RXF 393 > 100 µM | BT-549 > 100 µM | KM12 > 100 µM | HOP-62 > 100 µM | MDA-N > 100 µM | SF-295 > 100 µM | K562 > 100 µM | OVCAR-3 > 100 µM | A498 > 100 µM | ACHN > 100 µM | SK-MEL-2 > 100 µM | NCI/ADR-RES > 100 µM | MDA-MB-231 > 100 µM | NCI-H522 > 100 µM | M14 > 100 µM | SF-268 > 100 µM

CC1CCC(C(C)C2C(O)CC3C4CC=C5CC(O)CCC5(C)C4CCC32C)NC1 (stereo not drawn)
inactive: SK-MEL-5 44.2 µM | OVCAR-8 15.9 µM | RXF 393 65 µM | BT-549 > 100 µM | HOP-62 27.7 µM | T47D 62.1 µM | K562 39.2 µM | A498 > 100 µM | ACHN 42 µM | SK-MEL-2 > 100 µM | NCI/ADR-RES 23.4 µM | MDA-MB-231 24.7 µM | NCI-H522 63 µM | M14 > 100 µM | SF-268 > 100 µM

O=C1O/C(=C(/Cl)c2c3ccccc3cc3ccccc23)c2ccccc21
inactive: SK-MEL-5 15.4 µM | OVCAR-8 23.4 µM | RXF 393 33.3 µM | KM12 4.02 µM | HOP-62 29.1 µM | MDA-N 27.4 µM | T47D 80.5 µM | SF-295 47 µM | K562 13.8 µM | OVCAR-3 20.1 µM | A498 27 µM | ACHN 24.5 µM | SK-MEL-2 15.8 µM | NCI/ADR-RES 35.2 µM | MDA-MB-231 19.9 µM | NCI-H522 29.8 µM | M14 21.4 µM | SF-268 30.5 µM

CC1(C)CN=C(Nc2ccc(Cl)cc2)S1
inactive: SK-MEL-5 62.7 µM | OVCAR-8 > 100 µM | RXF 393 > 100 µM | BT-549 > 100 µM | KM12 90.4 µM | HOP-62 > 100 µM | MDA-N > 100 µM | T47D 42.9 µM | SF-295 > 100 µM | K562 > 100 µM | OVCAR-3 71.9 µM | ACHN > 100 µM | SK-MEL-2 > 100 µM | NCI/ADR-RES 76.6 µM | MDA-MB-231 > 100 µM | NCI-H522 > 100 µM | M14 > 100 µM | SF-268 > 100 µM

O=C(c1ccccc1)n1c2ccc(Br)cc2c2nc3ccccc3nc21
inactive: SK-MEL-5 > 100 µM | OVCAR-8 > 100 µM | RXF 393 > 100 µM | BT-549 > 100 µM | KM12 > 100 µM | HOP-62 15.9 µM | MDA-N > 100 µM | SF-295 > 100 µM | K562 72.8 µM | OVCAR-3 34.9 µM | ACHN 57.1 µM | SK-MEL-2 95.3 µM | NCI/ADR-RES > 100 µM | MDA-MB-231 > 100 µM | NCI-H522 43.7 µM | M14 > 100 µM | SF-268 > 100 µM

Cc1c(S(=O)(=O)c2ccccc2)c(N)n(Cc2ccccc2)c1C
inactive: SK-MEL-5 > 100 µM | OVCAR-8 > 100 µM | RXF 393 76.6 µM | BT-549 > 100 µM | KM12 > 100 µM | MDA-N > 100 µM | SF-295 > 100 µM | K562 > 100 µM | OVCAR-3 96.8 µM | A498 > 100 µM | ACHN > 100 µM | SK-MEL-2 > 100 µM | NCI/ADR-RES > 100 µM | MDA-MB-231 > 100 µM | NCI-H522 > 100 µM | M14 7.08 µM | SF-268 80.5 µM

CC1(C)CC(O)C(C)(C)[C@@H](O)C1 (stereo partly drawn)
inactive: SK-MEL-5 > 100 µM | OVCAR-8 > 100 µM | RXF 393 28.7 µM | BT-549 > 100 µM | KM12 > 100 µM | HOP-62 > 100 µM | MDA-N > 100 µM | T47D > 100 µM | SF-295 > 100 µM | K562 > 100 µM | ACHN > 100 µM | SK-MEL-2 > 100 µM | NCI/ADR-RES > 100 µM | MDA-MB-231 > 100 µM | NCI-H522 > 100 µM | M14 > 100 µM | SF-268 > 100 µM

C[n+]1c(-c2ccc(/C=N\NC(=O)c3ccc(C(=O)N/N=C/c4ccc(-c5cn6ccsc6[n+]5C)cc4)cc3)cc2)cn2ccsc21
inactive: SK-MEL-5 16.5 µM | OVCAR-8 14.8 µM | RXF 393 22.8 µM | BT-549 16.5 µM | KM12 23 µM | HOP-62 17.9 µM | MDA-N 32.8 µM | K562 14 µM | OVCAR-3 11.6 µM | A498 17.3 µM | ACHN 17.9 µM | SK-MEL-2 30.8 µM | NCI/ADR-RES 17.7 µM | MDA-MB-231 21.4 µM | NCI-H522 31.1 µM | M14 17.8 µM
